For 18 compounds, melting point results are on record in patent US6479554B2, “Immunotherapeutic agents” (Celgene Corporation, priority 1996, dated 2002).

Compound `CC=C(c1ccccc1)c1ccc(OC)c(OC)c1` [Example 5, 1-(3,4-Dimethoxyphenyl)-1-phenylprop-1-ene] showed a melting point of 72 to 73 °C.

Compound `CC=C(c1ccc(OC)c(OC)c1)c1ccc(OC)c(OCC)c1` [Example 6, 1-(3,4-Dimethoxyphenyl)-1-(3-ethoxy-4-methoxyphenyl)prop-1-ene] had a melting point of 65.5 to 68 °C.

For the compound `CCOc1cc(C(=CC#N)c2ccccc2)ccc1OC` [Example 8, 3-(3-Ethoxy-4-methoxyphenyl)-3-phenylacrylonitrile], the melting point lay within 74 to 77 °C.

`COc1cc(OC)cc(C(=CC#N)c2ccc(OC)c(OC)c2)c1` [Example 10, 3-(3,4-Dimethoxyphenyl)-3-(3′,5′-dimethoxyphenyl)-acrylonitrile] gave a melting point of 88 to 90 °C.

The compound `COc1ccc(C(=CC#N)c2cccc([N+](=O)[O-])c2)cc1OC` [Example 11, 3-(3,4-Dimethoxyphenyl)-3-(3′-nitrophenyl)acrylonitrile] gave a melting point of 117.5 to 120 °C.

As for `COc1ccc(C(=O)c2cccc(N)c2)cc1OC` [Example 13, 3,4-Dimethoxy-3′-aminobenzophenone], the melting point is 157 to 175 °C.

With `COc1ccc(C(=CC#N)c2ccc([N+](=O)[O-])cc2)cc1OC` [Example 14, 3-(3,4-Dimethoxyphenyl)-3-(4-nitrophenyl)acrylonitrile], the melting point was in the range of 117.5 to 120 °C.

In the case of `COc1ccc(C(=O)c2ccc(N)cc2)cc1OC` [Example 16, 3,4-Dimethoxy-4′-aminobenzophenone], the melting point is 189 to 191 °C.

As for `COc1ccc(C(=CC#N)c2ccc(C)cc2)cc1OC` [Example 17, 3-(3,4-Dimethoxyphenyl)-3-(4-methylphenyl)acrylonitrile], the melting point was in the range of 83.5 to 86.5 °C.

`COc1ccc(C(=CC#N)c2ccc(-c3ccccc3)cc2)cc1OC` [Example 18, 3-(4-Biphenylyl)-3-(3,4-dimethoxyphenyl)acrylonitrile] showed a melting point of 132 to 134 °C.

Turning to `COc1ccc(C(=CC#N)c2ccc(F)cc2)cc1OC` [Example 19, 3-(3,4-Dimethoxyphenyl)-3-(4′-fluorophenyl)acrylonitrile], the melting point is 100 to 102 °C.

The compound `COc1ccc(C(=CC#N)c2ccc3ccccc3c2)cc1OC` [Example 20, 3-(3,4-Dimethoxyphenyl)-3-naphth-2-ylacrylonitrile] came in with a melting point of 121 to 123 °C.

Regarding `COc1ccc(C(=CC#N)c2ccc3c(c2)OCO3)cc1OC` [Example 21, 3-(3,4-Dimethoxyphenyl)-3-(3,4-methylenedioxyphenyl)acrylonitrile], the melting point lay within 121 to 123 °C.

Take `COc1ccc(C(=CC#N)c2ccncc2)cc1OC` [Example 22, 3-(3,4-Dimethoxyphenyl)-3-pyridin-4-ylacrylonitrile]: the melting point fell in the range of 116 to 125 °C.

For the compound `COc1ccc(C(=CC#N)c2ccccn2)cc1OC` [Example 23, 3-(3,4-Dimethoxyphenyl)-3-pyridin-2-ylacrylonitrile], the melting point fell in the range of 134.5 to 135.5 °C.

`COc1ccc(C(=CC#N)c2ccco2)cc1OC` [Example 24, 3-(3,4-Dimethoxyphenyl)-3-(2-furyl)acrylonitrile] yielded a melting point of 78 to 82 °C.

`CCc1ccc(C(=CC#N)c2ccc(OC)c(OC)c2)cc1CC` [Example 26, 3-(3,4-Diethylphenyl)-3-(3,4-dimethoxyphenyl)acrylonitrile] had a melting point of 78 to 82 °C.

For `COc1ccc(C(=O)c2c(OC)cccc2OC)cc1OC` [Example 30, 2′,6′,3,4-Tetramethoxybenzophenone], the melting point lay in the range of 128 to 129 °C.
